In ChEMBL document CHEMBL1141122, “Receptor flexibility in de novo ligand design and docking” (J Med Chem, 2005):

target: T1, Interstitial collagenase (Homo sapiens, UniProt P03956); assay: Binding affinity towards (MMP-1) matrix metalloprotease-1
T1 sequence (P03956 whole entry): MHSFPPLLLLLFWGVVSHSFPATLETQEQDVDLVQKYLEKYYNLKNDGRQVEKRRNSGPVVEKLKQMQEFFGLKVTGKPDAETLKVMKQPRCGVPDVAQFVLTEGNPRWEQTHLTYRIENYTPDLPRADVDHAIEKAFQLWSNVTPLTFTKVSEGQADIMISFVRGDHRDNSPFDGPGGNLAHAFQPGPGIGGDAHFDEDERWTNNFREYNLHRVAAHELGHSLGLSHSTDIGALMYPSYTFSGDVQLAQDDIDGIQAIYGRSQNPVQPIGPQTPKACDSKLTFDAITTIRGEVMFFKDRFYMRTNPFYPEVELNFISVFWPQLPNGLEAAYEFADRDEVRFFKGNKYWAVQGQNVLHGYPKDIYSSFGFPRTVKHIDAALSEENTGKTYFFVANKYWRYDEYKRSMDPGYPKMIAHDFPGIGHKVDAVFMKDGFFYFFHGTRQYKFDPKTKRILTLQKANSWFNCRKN

Ki | Compound
70 nM | O=C(CNS(=O)(=O)c1ccc(Oc2ccc(Cl)cc2)cc1)NO
8.2 nM | O=C(CCC(=O)c1ccc(Oc2ccncc2)cc1)NO
8.2 nM | O=C(CNS(=O)(=O)c1ccc(Oc2ccncc2)cc1)NO
8.2 nM | O=C(CNC(=O)c1ccc(Oc2ccncc2)cc1)NO
3 nM | O=C(CCC(=O)c1ccc(C(F)(F)F)cc1)NO
33 nM | COc1ccc(S(=O)(=O)CCC(=O)NO)cc1
70 nM | O=C(CCS(=O)(=O)c1ccc(Oc2ccc(Cl)cc2)cc1)NO
3 nM | O=C(CCS(=O)(=O)c1ccc(C(F)(F)F)cc1)NO
3 nM | O=C(CNS(=O)(=O)c1ccc(C(F)(F)F)cc1)NO
224 nM | O=C(CCC(=O)N1CCC(Oc2ccc(-n3ccnc3)cc2)CC1)NO
33 nM | COc1ccc(C(=O)CCC(=O)NO)cc1
3 nM | O=C(CNC(=O)c1ccc(C(F)(F)F)cc1)NO
70 nM | O=C(CCC(=O)c1ccc(Oc2ccc(Cl)cc2)cc1)NO
70 nM | O=C(CNC(=O)c1ccc(Oc2ccc(Cl)cc2)cc1)NO
8.2 nM | O=C(CCS(=O)(=O)c1ccc(Oc2ccncc2)cc1)NO
33 nM | COc1ccc(C(=O)NCC(=O)NO)cc1
224 nM | O=C(CNC(=O)N1CCC(Oc2ccc(-n3ccnc3)cc2)CC1)NO
224 nM | O=C(CCS(=O)(=O)N1CCC(Oc2ccc(-n3ccnc3)cc2)CC1)NO
224 nM | O=C(CNS(=O)(=O)N1CCC(Oc2ccc(-n3ccnc3)cc2)CC1)NO

target: T1, Interstitial collagenase; assay: Inhibitory concentration against (MMP-1) matrix metalloprotease-1

IC50 | Compound
22 nM | O=C(CNS(=O)(=O)c1ccc(Oc2ccccc2)cc1)NO
22 nM | O=C(CNC(=O)c1ccc(Oc2ccccc2)cc1)NO
10 nM | Cc1cc(F)ccc1COc1ccc(S(=O)(=O)CCC(=O)NO)cc1
920 nM | CCCCOc1ccc(C(=O)CCC(=O)NO)cc1
920 nM | CCCCOc1ccc(C(=O)NCC(=O)NO)cc1
121 nM | CC#COc1ccc(C(=O)NCC(=O)NO)cc1
1.3 nM | O=C1CC=C2C=CC=C(S(=O)(=O)NCC(=O)NO)N2C1
10 nM | Cc1cc(F)ccc1COc1ccc(C(=O)NCC(=O)NO)cc1
22 nM | O=C(CCC(=O)c1ccc(Oc2ccccc2)cc1)NO
920 nM | CCCCOc1ccc(S(=O)(=O)CCC(=O)NO)cc1
121 nM | CC#COc1ccc(S(=O)(=O)NCC(=O)NO)cc1
3 nM | O=C1CC=C2C=CC=C(C(=O)CCC(=O)NO)N2C1
121 nM | CC#COc1ccc(S(=O)(=O)CCC(=O)NO)cc1
1.3 nM | O=C1CC=C2C=CC=C(S(=O)(=O)CCC(=O)NO)N2C1
10 nM | Cc1cc(F)ccc1COc1ccc(S(=O)(=O)NCC(=O)NO)cc1
1.3 nM | O=C1CC=C2C=CC=C(C(=O)NCC(=O)NO)N2C1
920 nM | CCCCOc1ccc(S(=O)(=O)NCC(=O)NO)cc1
22 nM | O=C(CCS(=O)(=O)c1ccc(Oc2ccccc2)cc1)NO
121 nM | CC#COc1ccc(C(=O)CCC(=O)NO)cc1
10 nM | Cc1cc(F)ccc1COc1ccc(C(=O)CCC(=O)NO)cc1
